Target: T1, Urotensin-2 receptor (Homo sapiens, UniProt Q9UKP6)
T1 sequence (Q9UKP6 whole entry): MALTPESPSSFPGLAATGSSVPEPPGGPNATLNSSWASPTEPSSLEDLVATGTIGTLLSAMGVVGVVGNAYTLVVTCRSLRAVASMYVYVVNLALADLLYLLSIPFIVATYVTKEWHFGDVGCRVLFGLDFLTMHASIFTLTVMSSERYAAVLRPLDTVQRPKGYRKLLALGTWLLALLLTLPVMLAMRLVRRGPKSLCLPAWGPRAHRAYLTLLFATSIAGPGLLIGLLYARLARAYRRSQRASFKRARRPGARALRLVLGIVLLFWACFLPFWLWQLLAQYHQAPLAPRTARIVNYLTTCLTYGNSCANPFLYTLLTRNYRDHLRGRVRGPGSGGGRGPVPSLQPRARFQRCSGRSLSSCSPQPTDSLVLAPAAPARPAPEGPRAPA
Test: Inhibition of human recombinant urotensin 2 receptor-mediated calcium mobilization expressed in HEK293 cells by FLIPR assay
Format: functional, cell-based
Conditions: not given

| Structure (SMILES) | IC50 |
| --- | --- |
| CN(CC(=O)N1CCCCC1CN1CCCC1)c1ccc(Cl)c(Cl)c1 (stereo unspecified) | 631 nM |

Target: T1, Urotensin-2 receptor
Test: Displacement of [125I]human urotensin 2 from human recombinant urotensin 2 receptor expressed in HEK293 cells
Format: cell-based
Conditions: not given

| Structure (SMILES) | Ki |
| --- | --- |
| CN(CC(=O)N1CCCCC1CN1CCCC1)c1ccc(Cl)c(Cl)c1 (stereo unspecified) | 398 nM |
| O=C(Cc1csc2ccc(Cl)cc12)N1CCC[C@H](c2ccccc2)[C@@H]1CN1CCCC1 (relative stereo) | 7.94 nM |
| O=C(Cc1csc2ccccc12)N1CCC[C@H](c2ccccc2)[C@@H]1CN1CCCC1 | 251 nM |
| O=C(Cc1csc2ccc(Cl)cc12)N1CCC[C@H](C2CCCCC2)[C@@H]1CN1CCCC1 (relative stereo) | 25.1 nM |
| CN(CC(=O)N1CCC[C@H](c2ccccc2)[C@@H]1CN1CCCC1)c1ccc(Cl)c(Cl)c1 (stereo in doubt; 10b) | 15.8 nM |
| CN(CC(=O)N1CCC[C@@H](c2ccccc2)[C@H]1CN1CCCC1)c1ccc(Cl)c(Cl)c1 | 1580 nM |
| O=C(Cc1ccc(Cl)c(Cl)c1)N1CCC[C@H](c2ccccc2)[C@@H]1CN1CCCC1 | 2510 nM |
| O=C(Cc1csc2ccc(Cl)cc12)N1CC[C@H](c2ccccc2)C[C@@H]1CN1CCCC1 (relative stereo) | 200 nM |
| CN(CC(=O)N1CCC[C@H](c2ccccc2)[C@@H]1CN1CCCC1)c1ccccc1Cl | 794 nM |
| CN(CC(=O)N1CCC[C@H](c2ccccc2)[C@@H]1CN1CCCC1)c1cccc(Cl)c1 | 79.4 nM |
| O=C(c1cccc2ccccc12)N1CCC[C@H](c2ccccc2)[C@@H]1CN1CCCC1 | > 7940 nM |
| CCCO[C@H]1CCCN(C(=O)Cc2csc3ccc(Cl)cc23)[C@H]1CN1CCCC1 (relative stereo) | 31.6 nM |
| CCN(CC(=O)N1CCC[C@H](c2ccccc2)[C@@H]1CN1CCCC1)c1ccc(Cl)c(Cl)c1 | 31.6 nM |
| COc1cccc(N(C)CC(=O)N2CCC[C@H](c3ccccc3)[C@@H]2CN2CCCC2)c1 | 794 nM |
| CN(CC(=O)N1CCC[C@H](c2ccccc2)[C@@H]1CN1CCCC1)c1ccccc1 | 3160 nM |
| O=C(Cc1csc2ccc(Br)cc12)N1CCC[C@H](c2ccccc2)[C@@H]1CN1CCCC1 | 7.94 nM |
| O=C(CN(CC1CC1)c1ccc(Cl)c(Cl)c1)N1CCC[C@H](c2ccccc2)[C@@H]1CN1CCCC1 | 50.1 nM |
| C[C@H]1CCCN(C(=O)Cc2csc3ccc(Cl)cc23)[C@H]1CN1CCCC1 (relative stereo) | 200 nM |
| CC(=O)N(CC(=O)N1CCC[C@H](c2ccccc2)[C@@H]1CN1CCCC1)c1ccc(Cl)c(Cl)c1 | 1580 nM |
| O=C(Cc1csc2ccc(Cl)cc12)N1CCC[C@H](c2ccccc2)[C@@H]1CN1CCCC1 | 3.98 nM |
| Cc1ccc2scc(CCC(=O)N3CCC[C@H](c4ccccc4)[C@@H]3CN3CCCC3)c2c1 | 3160 nM |
| CN(CC(=O)N1CCC[C@H](c2ccccc2)[C@@H]1CN1CCCC1)c1cccc(C(F)(F)F)c1 | 100 nM |
| Cc1ccc2scc(CC(=O)N3CCC[C@H](c4ccccc4)[C@@H]3CN3CCCC3)c2c1 | 15.8 nM |

| Structure (SMILES) | Ki |
| --- | --- |
| O=C(Cc1csc2ccc(Cl)cc12)N1CCOCC1CN1CCCC1 (stereo unspecified) | 794 nM |
| O=C(Cc1csc2ccc(Cl)cc12)N1CCCCC1CN1CCOCC1 (stereo unspecified) | 1260 nM |
| O=C(Cc1c[nH]c2ccc(Br)cc12)N1CCC[C@H](c2ccccc2)[C@@H]1CN1CCCC1 | 631 nM |
| O=C(Cc1csc2ccc(Cl)cc12)N1CCCCC1CN1CCCCC1 (stereo unspecified) | 7940 nM |
| CS(=O)(=O)N(CC(=O)N1CCC[C@H](c2ccccc2)[C@@H]1CN1CCCC1)c1ccc(Cl)c(Cl)c1 | 79.4 nM |
| O=C(Cc1ccc2ccccc2c1)N1CCC[C@H](c2ccccc2)[C@@H]1CN1CCCC1 | 7940 nM |
| O=C(Cc1csc2ccc(Cl)cc12)N1C[C@H](c2ccccc2)CC[C@H]1CN1CCCC1 (relative stereo) | 31.6 nM |
| O=C(CNc1ccc(Cl)c(Cl)c1)N1CCC[C@H](c2ccccc2)[C@@H]1CN1CCCC1 | 63.1 nM |
| CN(CC(=O)N1CCC[C@H](c2ccccc2)[C@@H]1CN1CCCC1)c1ccc(Cl)cc1 | 501 nM |
| O=C(Cc1csc2ccc(Cl)cc12)N1CCCCC1CN1CCCC1 (stereo unspecified) | 501 nM |
| CN1CCN(CC2CCCCN2C(=O)Cc2csc3ccc(Cl)cc23)CC1 (stereo unspecified) | > 7940 nM |
| CN(CC(=O)N1CCC[C@H](c2ccccc2)[C@@H]1CN1CCCC1)c1ccc2ccccc2c1 | 158 nM |
| CN(CC(=O)N1CCC[C@H](c2ccccc2)[C@@H]1CN1CCCC1)c1ccc(Cl)c(Cl)c1 (stereo in doubt; 11a) | 6.31 nM |
| O=C(Cc1ccsc1)N1CCC[C@H](c2ccccc2)[C@@H]1CN1CCCC1 | > 7940 nM |
| O=C(Cc1csc2ccc(Cl)cc12)N1CCCC1CN1CCCC1 (stereo unspecified) | > 7940 nM |
| Cc1cccc(N(C)CC(=O)N2CCC[C@H](c3ccccc3)[C@@H]2CN2CCCC2)c1 | 398 nM |
| O=C(Cc1csc2ccc(Cl)cc12)N1CCCCCC1CN1CCCC1 (stereo unspecified) | 2000 nM |
| O=C(Cc1cccc2ccccc12)N1CCC[C@H](c2ccccc2)[C@@H]1CN1CCCC1 | 79.4 nM |
| Cc1ccc(N(C)CC(=O)N2CCC[C@H](c3ccccc3)[C@@H]2CN2CCCC2)cc1C | 200 nM |
| CCN(CC)CC1CCCCN1C(=O)Cc1csc2ccc(Cl)cc12 (stereo unspecified) | > 7940 nM |
| O=C(Cc1csc2ccc(Cl)cc12)N1CCC[C@@H](c2ccccc2)[C@H]1CN1CCCC1 | 1000 nM |
| CN(CC(=O)N1CCC[C@H](c2ccccc2)[C@@H]1CN1CCCC1)Cc1ccc(Cl)c(Cl)c1 | 3980 nM |

Target: not listed separately
Test: Displacement of [125I]human urotensin 2 from cat urotensin 2 receptor
Parameters: species or system Felis catus
Conditions: not given

| Structure (SMILES) | Log Ki |
| --- | --- |
| O=C(Cc1csc2ccc(Cl)cc12)N1CCC[C@H](c2ccccc2)[C@@H]1CN1CCCC1 | -8 |
| CN(CC(=O)N1CCC[C@H](c2ccccc2)[C@@H]1CN1CCCC1)c1ccc(Cl)c(Cl)c1 (stereo in doubt; 11a) | -8.1 |

Target: T2, Urotensin-2 receptor (Rattus norvegicus, UniProt P49684)
T2 sequence (P49684 whole entry): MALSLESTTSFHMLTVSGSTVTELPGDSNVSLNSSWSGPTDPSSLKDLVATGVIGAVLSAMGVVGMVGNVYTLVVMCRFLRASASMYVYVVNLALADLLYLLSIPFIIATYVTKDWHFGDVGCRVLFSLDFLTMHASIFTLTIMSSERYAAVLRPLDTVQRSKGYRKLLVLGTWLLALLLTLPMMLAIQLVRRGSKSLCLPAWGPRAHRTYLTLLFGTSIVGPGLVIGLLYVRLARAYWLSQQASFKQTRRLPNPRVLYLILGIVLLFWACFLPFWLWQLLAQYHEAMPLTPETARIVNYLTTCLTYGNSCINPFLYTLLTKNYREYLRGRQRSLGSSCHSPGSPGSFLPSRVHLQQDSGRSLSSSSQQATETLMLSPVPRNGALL
Test: Displacement of [125I]human urotensin 2 from rat urotensin 2 receptor
Conditions: not given

| Structure (SMILES) | Ki |
| --- | --- |
| O=C(Cc1csc2ccc(Cl)cc12)N1CCC[C@H](c2ccccc2)[C@@H]1CN1CCCC1 | 10 nM |
| CN(CC(=O)N1CCC[C@H](c2ccccc2)[C@@H]1CN1CCCC1)c1ccc(Cl)c(Cl)c1 (stereo in doubt; 11a) | 6.31 nM |

Test system: Aorta
Test: Blockade of human urotensin 2-induced contraction in rat isolated aorta
Format: functional
Conditions: not given

| Structure (SMILES) | pKb |
| --- | --- |
| O=C(Cc1csc2ccc(Cl)cc12)N1CCC[C@H](c2ccccc2)[C@@H]1CN1CCCC1 | 7.7 |
| CN(CC(=O)N1CCC[C@H](c2ccccc2)[C@@H]1CN1CCCC1)c1ccc(Cl)c(Cl)c1 (stereo in doubt; 11a) | 7.9 |

Test system: not listed separately
Test: Blockade of human urotensin 2-induced contraction in cat isolated femoral artery
Format: functional, Felis catus
Conditions: not given

| Structure (SMILES) | pKb |
| --- | --- |
| O=C(Cc1csc2ccc(Cl)cc12)N1CCC[C@H](c2ccccc2)[C@@H]1CN1CCCC1 | 7.2 |
| CN(CC(=O)N1CCC[C@H](c2ccccc2)[C@@H]1CN1CCCC1)c1ccc(Cl)c(Cl)c1 (stereo in doubt; 11a) | 7.2 |

Target: Cytochrome P450 2D6 (Homo sapiens, UniProt P10635)
Sequence (P10635 whole entry): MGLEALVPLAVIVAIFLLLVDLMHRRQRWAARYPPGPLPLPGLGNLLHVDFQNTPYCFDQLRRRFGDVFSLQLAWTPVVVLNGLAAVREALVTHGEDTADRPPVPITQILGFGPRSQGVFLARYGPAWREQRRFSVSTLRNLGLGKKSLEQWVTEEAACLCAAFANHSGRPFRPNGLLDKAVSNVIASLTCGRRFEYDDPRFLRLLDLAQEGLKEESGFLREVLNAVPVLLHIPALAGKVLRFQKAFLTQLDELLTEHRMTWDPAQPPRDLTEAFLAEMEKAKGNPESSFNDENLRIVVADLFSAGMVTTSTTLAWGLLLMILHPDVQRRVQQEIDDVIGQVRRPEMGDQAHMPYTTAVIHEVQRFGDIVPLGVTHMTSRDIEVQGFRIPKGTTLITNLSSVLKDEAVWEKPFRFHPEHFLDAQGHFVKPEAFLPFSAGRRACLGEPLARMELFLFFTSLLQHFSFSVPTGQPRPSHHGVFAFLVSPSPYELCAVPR
Test: Inhibition of CYP2D6
Format: ADME
Conditions: not given

| Structure (SMILES) | IC50 |
| --- | --- |
| CN(CC(=O)N1CCC[C@H](c2ccccc2)[C@@H]1CN1CCCC1)c1ccc(Cl)c(Cl)c1 (stereo in doubt; 10b) | 800 nM |

Target: Cytochrome P450 3A4 (Homo sapiens, UniProt P08684)
Sequence (P08684 whole entry): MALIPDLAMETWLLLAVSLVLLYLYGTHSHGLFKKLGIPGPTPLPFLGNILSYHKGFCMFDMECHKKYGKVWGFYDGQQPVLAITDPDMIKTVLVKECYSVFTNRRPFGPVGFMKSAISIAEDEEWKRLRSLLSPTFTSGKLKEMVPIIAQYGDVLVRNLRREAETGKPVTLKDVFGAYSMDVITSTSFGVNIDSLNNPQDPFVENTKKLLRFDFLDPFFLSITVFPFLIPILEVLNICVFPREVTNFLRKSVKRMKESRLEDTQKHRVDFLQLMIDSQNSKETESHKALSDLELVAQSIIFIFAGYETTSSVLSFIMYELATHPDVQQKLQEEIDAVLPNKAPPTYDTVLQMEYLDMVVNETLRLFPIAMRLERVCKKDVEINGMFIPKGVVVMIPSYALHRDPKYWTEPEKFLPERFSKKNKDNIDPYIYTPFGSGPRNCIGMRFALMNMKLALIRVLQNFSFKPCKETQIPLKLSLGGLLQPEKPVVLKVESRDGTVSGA
Test: Inhibition of CYP3A4
Format: ADME
Conditions: not given

| Structure (SMILES) | IC50 |
| --- | --- |
| CN(CC(=O)N1CCC[C@H](c2ccccc2)[C@@H]1CN1CCCC1)c1ccc(Cl)c(Cl)c1 (stereo in doubt; 10b) | 1400 nM |

Test system: not listed separately
Test: Clearance in rat at 1.2 mg/kg, iv and 2.2 mg/kg, po
Format: ADME, organism-based
Conditions: in vivo

| Structure (SMILES) | clearance |
| --- | --- |
| CN(CC(=O)N1CCC[C@H](c2ccccc2)[C@@H]1CN1CCCC1)c1ccc(Cl)c(Cl)c1 (stereo in doubt; 10b) | 97 mL/min/kg |

Test system: not listed separately
Test: Bioavailability in rat at 2.2 mg/kg, po
Format: ADME, organism-based
Conditions: in vivo

| Structure (SMILES) | bioavailability |
| --- | --- |
| CN(CC(=O)N1CCC[C@H](c2ccccc2)[C@@H]1CN1CCCC1)c1ccc(Cl)c(Cl)c1 (stereo in doubt; 10b) | 0% |

Test system: not listed separately
Test: Half life in rat at 1.2 mg/kg, iv and 2.2 mg/kg, po
Format: ADME, organism-based
Conditions: in vivo

| Structure (SMILES) | half-life |
| --- | --- |
| CN(CC(=O)N1CCC[C@H](c2ccccc2)[C@@H]1CN1CCCC1)c1ccc(Cl)c(Cl)c1 (stereo in doubt; 10b) | 3.8 h |

Test system: not listed separately
Test: Volume of distribution at steady state in rat at 1.2 mg/kg, iv and 2.2 mg/kg, po
Format: ADME, organism-based
Conditions: in vivo, read-out: Vdss

| Structure (SMILES) | Vd |
| --- | --- |
| CN(CC(=O)N1CCC[C@H](c2ccccc2)[C@@H]1CN1CCCC1)c1ccc(Cl)c(Cl)c1 (stereo in doubt; 10b) | 23 L/kg |

Target: T1, Urotensin-2 receptor
Test: Antagonist activity at human urotensin 2 receptor
Format: functional
Conditions: read-out: pA2 (converted)

| Structure (SMILES) | Kb |
| --- | --- |
| O=C(Cc1csc2ccc(Cl)cc12)N1CCC[C@H](c2ccccc2)[C@@H]1CN1CCCC1 | 10 nM |
